Experimental data: BindingDB's records for doi:10.1021/acs.jmedchem.6b01595 (Dipartimento Di Chimica E Tecnologie Del Farmaco "Sapienza" …, 2017)

Molecular target: T1, Histone deacetylase (Plasmodium falciparum (isolate 3D7), UniProt Q7K6A1)
T1 sequence (Q7K6A1 whole entry): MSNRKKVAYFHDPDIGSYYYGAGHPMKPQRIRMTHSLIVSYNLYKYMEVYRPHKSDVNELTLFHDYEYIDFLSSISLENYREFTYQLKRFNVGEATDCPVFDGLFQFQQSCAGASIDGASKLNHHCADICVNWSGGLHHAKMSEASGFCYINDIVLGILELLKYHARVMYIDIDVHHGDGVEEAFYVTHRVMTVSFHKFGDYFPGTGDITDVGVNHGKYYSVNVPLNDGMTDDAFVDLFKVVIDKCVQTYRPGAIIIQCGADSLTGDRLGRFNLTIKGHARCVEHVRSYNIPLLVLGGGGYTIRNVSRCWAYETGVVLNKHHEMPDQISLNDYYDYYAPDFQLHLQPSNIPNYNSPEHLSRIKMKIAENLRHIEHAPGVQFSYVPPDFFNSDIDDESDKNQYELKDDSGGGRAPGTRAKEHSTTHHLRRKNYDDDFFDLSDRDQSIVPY
Test: Inhibition of HDAC1 in Plasmodium falciparum 3D7 nuclear extract using Ac-RGK(Ac)-AMC fluorogenic peptide as substrate preincubated for 1 hr followed by substrate addition measured after 10 min by fluorescence assay

SMILES: C/C=C1\NC(=O)[C@H]2CSSCC/C=C/[C@@H](CC(=O)N[C@H](C(C)C)C(=O)N2)OC(=O)[C@H](C(C)C)NC1=O
- IC50: 0.9 nM
